Test results reported in patent publication US10647719B2, “Bicyclic compounds as dual ATX/CA inhibitors” (Hoffmann-La Roche Inc., priority 2015, dated 2020).
Read-outs that look alike come from different tables or passages of the source.

Experiments:
human ATX = human ATX (Homo sapiens (Human), UniProt Q13822); assay: Human ATX enzyme inhibition assay (fluorescence quenching, MR121 substrate); assay type: biochemical
Method: Human ATX Enzyme Inhibition Assay
ATX inhibition was measured by a fluorescence quenching assay using a specifically labeled substrate analogue (MR121 substrate). To obtain this MR121 substrate, BOC and TBS protected 6-amino-hexanoic acid (R)-3-({2-[3-(2-{2-[2-(2-amino-ethoxy)-ethoxy]-ethoxy}-ethoxy)-propionylamino]-ethoxy}-hydroxy-phosphoryloxy)-2-hydroxy-propyl ester (Ferguson et al., Org Lett 2006, 8 (10), 2023) was labeled with MR121 fluorophore (CAS 185308-24-1, 1-(3-carboxypropyl)-11-ethyl-1,2,3,4,8,9,10,11-octahydro-dipyrido[3,2-b:2′,3′-i]phenoxazin-13-ium) on the free amine of the ethanolamine side and then, after deprotection, subsequently with tryptophan on the side of the aminohexanoic acid.
(§1) Assay working solutions were made as follows:
Assay buffer (50 mM Tris-HCl, 140 mM NaCl, 5 mM KCl, 1 mM CaCl2, 1 mM MgCl2, 0.01% Triton-X-100, pH 8.0;
ATX solution: ATX (human His-tagged) stock solution (1.08 mg/mL in 20 mM bicine, pH 8.5, 0.15 M NaCl, 10% glycerol, 0.3% CHAPS, 0.02% NaN3), diluted to 1.4-2.5× final concentration in assay buffer;
MR121 substrate solution: MR121 substrate stock solution (800 μM MR121 substrate in DMSO), diluted to 2-5× final concentration in assay buffer.
Test compounds (10 mM stock in DMSO, 8 μL) were obtained in 384 well sample plates (Corning Costar #3655) and diluted with 8 μL DMSO. Row-wise serial dilutions were made by transferring 8 μL cpd solution to the next row up to row O. The compound and control solutions were mixed five times and 2 μL were transferred to 384 well assay plates (Corning Costar #3702). Then, 15 μL of 41.7 nM ATX solution was added (30 nM final concentration), mixed five times and then incubated for 15 minutes at 30° C. 10 μL of MR121 substrate solution was added (1 μM final concentration), mixed 30 times and then incubated for 15 minutes at 30° C.

[1] = biological target: Human carbonic anhydrase II (hCA-II) (Homo sapiens (Human), UniProt P00918); assay: Human carbonic anhydrase-II inhibition assay (absorbance, 4-nitrophenyl acetate substrate); assay type: biochemical
Method: Human Carbonic Anhydrase-II Inhibition Assay
Human carbonic anhydrase II (hCA-II) inhibition was measured by an absorbance method using 4-nitrophenyl acetate (4-NPA) as its substrate. 4-NPA can be catalyzed by active hCA II via a zinc-hydroxide mechanism. The nitrophenolate in the products can be ionized to generate a bright yellow anion with high absorbance at 348 to 400 nm, as reported in the literature (Armstrong et al., J. Biol. Chem. 1966, 241, 5137-5149). OD340 nm was chosen for detecting hCA II substrate conversion.
as §1
Assay buffer: 50 mM MOPS, 33 mM Na2SO4, 1 mM EDTA, 0.5 mg/ml BSA, pH 7.5;
Enzyme solution: hCA-II (human, full length) stock solution (1.0 mg/mL in 20 mM HEPES, 50 mM NaCl, pH 7.4), diluted to 2133× final concentration in assay buffer;
4-NPA substrate solution: 4-NPA substrate stock solution (250 mM in DMSO, stored at −20° C.), diluted to 50× final concentration in deionized water.
Test compounds (10 mM stock in DMSO, 100 μL) were obtained in […] sample plates (Corning Costar #3655) and diluted to 0.5 mM. Column-wise serial dilutions were made by transferring 20 μL compound solutions to the next column, from column 3 up to 22. After this, 1.2 μL were transferred to 384 well assay plates (Corning Costar #3701). Then 30 μL of 16 nM hCA II solution was added (8 nM final concentration), mixed five times. 30 μL of 4-NPA substrate solution was added (2.5 mM final concentration), mixed five times. Absorbance at 340 nm was then measured immediately as time zero. The assay plates were incubated at room temperature for 1 hour and then measured as time 1 hour (Perkin Elmer EnVision 2103; Filter: Photometric 340; Light intensity 60%; Number of flashes: 10). IC50 values and Ki values were calculated from these readouts.

[2] = human His-tagged ATX 30 nM, MR121 substrate 1 μM, 30° C., read-out: ATX IC50
[3] = hCA II 8 nM, 4-NPA 2.5 mM, absorbance 340 nm, room temperature 1 hour, read-out: CA-II IC50

## Cc1cnn(Cc2cc(C(F)(F)F)ccc2CCC(=O)N2CC3=C(C2)CN(C(=O)c2ccc(S(N)(=O)=O)cc2F)C3)n1 [Example 3.08, 3-fluoro-4-[2-[3-[2-[(4-methyltriazol-2-yl)methyl]-4-(trifluoromethyl)phenyl]propanoyl]-1,3,4,6-tetrahydropyrrolo[3,4-c]pyrrole-5-carbonyl]benzenesulfonamide]
Human ATX
  IC50: 1 nM
[1]
  IC50: 6 nM

## NS(=O)(=O)c1ccc(C(=O)N2CC3=C(CN(C(=O)c4cc(OCC5CCOCC5)nc(C5CC5)c4)C3)C2)c(F)c1F [Example 1.33, 4-[5-[2-cyclopropyl-6-(oxan-4-ylmethoxy)pyridine-4-carbonyl]-1,3,4,6-tetrahydropyrrolo[3,4-c]pyrrole-2-carbonyl]-2,3-difluorobenzenesulfonamide]
Human ATX
  IC50: 1 nM
[1]
  IC50: 2.3 nM

## Cc1nnn(Cc2cc(C(F)(F)F)ccc2CCC(=O)N2CC3=C(C2)CN(C(=O)c2ccc(S(N)(=O)=O)cc2F)C3)n1 [Example 1.10, 3-fluoro-4-(5-(3-(2-((5-methyl-2H-tetrazol-2-yl)methyl)-4-(trifluoromethyl)phenyl)propanoyl)-1,2,3,4,5,6-hexahydropyrrolo[3,4-c]pyrrole-2-carbonyl)benzenesulfonamide]
Human ATX; [2]
  IC50: 8 nM
[1]; [3]
  IC50: 19 nM

## CC(C)(C)C(=O)Nc1cc(C(F)(F)F)cnc1COC(=O)N1CC2=C(C1)CN(C(=O)c1c(F)cc(S(N)(=O)=O)cc1F)C2 [Example 1.11, [3-(2,2-dimethylpropanoylamino)-5-(trifluoromethyl)pyridin-2-yl]methyl 2-(2,6-difluoro-4-sulfamoylbenzoyl)-1,3,4,6-tetrahydropyrrolo[3,4-c]pyrrole-5-carboxylate]
Human ATX; [2]
  IC50: 9 nM
[1]; [3]
  IC50: 27 nM

## CC(C)(C)C(=O)Nc1cc(C#N)cnc1COC(=O)N1CC2=C(C1)CN(C(=O)c1cc(F)c(S(N)(=O)=O)cc1F)C2 [Example 1.27, [5-cyano-3-(2,2-dimethylpropanoylamino)pyridin-2-yl]methyl 2-(2,5-difluoro-4-sulfamoylbenzoyl)-1,3,4,6-tetrahydropyrrolo[3,4-c]pyrrole-5-carboxylate]
Human ATX; [2]
  IC50: 8 nM
[1]; [3]
  IC50: 18 nM

## NS(=O)(=O)c1ccc(C(=O)N2CC3=C(CN(C(=O)OCc4ccc(OC(F)(F)F)cc4)C3)C2)c(F)c1 [Example 2.03, [4-(trifluoromethoxy)phenyl]methyl 2-(2-fluoro-4-sulfamoylbenzoyl)-1,3,4,6-tetrahydropyrrolo[3,4-c]pyrrole-5-carboxylate]
Human ATX
  IC50: 2 nM
[1]
  IC50: 6 nM

## CC(C)(C)C(=O)Nc1cc(C(F)(F)F)cnc1COC(=O)N1CC2=C(C1)CN(C(=O)c1ccc(S(N)(=O)=O)c(Cl)c1)C2 [Example 1.02, [3-(2,2-dimethylpropanoylamino)-5-(trifluoromethyl)pyridin-2-yl]methyl 2-(3-chloro-4-sulfamoylbenzoyl)-1,3,4,6-tetrahydropyrrolo[3,4-c]pyrrole-5-carboxylate]
Human ATX; [2]
  IC50: 5 nM
[1]; [3]
  IC50: 10 nM

## CC(C)(C)C(=O)Nc1cc(C(F)(F)F)cnc1COC(=O)N1CC2=C(C1)CN(C(=O)c1ccc(S(N)(=O)=O)cn1)C2 [Example 1.05, [3-(2,2-dimethylpropanoylamino)-5-(trifluoromethyl)pyridin-2-yl]methyl 2-(5-sulfamoylpyridine-2-carbonyl)-1,3,4,6-tetrahydropyrrolo[3,4-c]pyrrole-5-carboxylate]
Human ATX; [2]
  IC50: 7 nM
[1]; [3]
  IC50: 11 nM

## CC(C)(C)C(=O)Nc1cc(Cl)cnc1COC(=O)N1CC2=C(C1)CN(C(=O)c1ccc(S(N)(=O)=O)c(F)c1)C2 [Example 1.13, [5-chloro-3-(2,2-dimethylpropanoylamino)pyridin-2-yl]methyl 2-(3-fluoro-4-sulfamoylbenzoyl)-1,3,4,6-tetrahydropyrrolo[3,4-c]pyrrole-5-carboxylate]
Human ATX; [2]
  IC50: 2 nM
[1]; [3]
  IC50: 20.6 nM

## CC(C)(C)C(=O)Nc1cc(Cl)cnc1COC(=O)N1CC2=C(C1)CN(C(=O)c1ccc(S(N)(=O)=O)c(F)c1F)C2 [Example 1.14, [5-chloro-3-(2,2-dimethylpropanoylamino)pyridin-2-yl]methyl 2-(2,3-difluoro-4-sulfamoylbenzoyl)-1,3,4,6-tetrahydropyrrolo[3,4-c]pyrrole-5-carboxylate]
Human ATX; [2]
  IC50: 15 nM
[1]; [3]
  IC50: 16.6 nM

## CN1CCC(COc2cc(C(=O)N3CC4=C(C3)CN(C(=O)c3ccc(S(N)(=O)=O)c(F)c3F)C4)cc(C3CC3)n2)CC1 [Example 1.34, 4-[5-[2-cyclopropyl-6-[(1-methylpiperidin-4-yl)methoxy]pyridine-4-carbonyl]-1,3,4,6-tetrahydropyrrolo[3,4-c]pyrrole-2-carbonyl]-2,3-difluorobenzenesulfonamide]
Human ATX
  IC50: 12 nM
[1]
  IC50: 1 nM

## Cc1nnn(Cc2cc(C(F)(F)F)cnc2CCC(=O)N2CC3=C(C2)CN(C(=O)c2ccc(S(N)(=O)=O)cc2F)C3)n1 [Example 3.10, 3-fluoro-4-[2-[3-[3-[(5-methyltetrazol-2-yl)methyl]-5-(trifluoromethyl)pyridin-2-yl]propanoyl]-1,3,4,6-tetrahydropyrrolo[3,4-c]pyrrole-5-carbonyl]benzenesulfonamide]
Human ATX
  IC50: 2 nM
[1]
  IC50: 5 nM

## CC(C)(C)C(=O)Nc1ccc(Cl)nc1COC(=O)N1CC2=C(C1)CN(C(=O)c1cc(F)c(S(N)(=O)=O)cc1F)C2 [Example 1.20, [6-chloro-3-(2,2-dimethylpropanoylamino)pyridin-2-yl]methyl 2-(2,5-difluoro-4-sulfamoylbenzoyl)-1,3,4,6-tetrahydropyrrolo[3,4-c]pyrrole-5-carboxylate]
Human ATX; [2]
  IC50: 15 nM
[1]; [3]
  IC50: 2 nM

## CC(C)(C)C(=O)Nc1cc(C(F)(F)F)cnc1COC(=O)N1CC2=C(C1)CN(C(=O)c1cc(F)c(S(N)(=O)=O)cc1F)C2 [Example 1.01, [3-(2,2-dimethylpropanoylamino)-5-(trifluoromethyl)pyridin-2-yl]methyl 2-(2,5-difluoro-4-sulfamoylbenzoyl)-1,3,4,6-tetrahydropyrrolo[3,4-c]pyrrole-5-carboxylate]
Human ATX; [2]
  IC50: 10 nM
[1]; [3]
  IC50: 7 nM

## NS(=O)(=O)c1ccc(C(=O)N2CC3=C(CN(C(=O)COc4ccc(OC(F)(F)F)cc4)C3)C2)nc1 [Example 3.04, 6-[2-[2-[4-(trifluoromethoxy)phenoxy]acetyl]-1,3,4,6-tetrahydropyrrolo[3,4-c]pyrrole-5-carbonyl]pyridine-3-sulfonamide]
Human ATX
  IC50: 7 nM
[1]
  IC50: 17 nM

## NS(=O)(=O)c1ccc(C(=O)N2CC3=C(CN(C(=O)CCc4ccc(OC(F)(F)F)cc4)C3)C2)nc1 [Example 3.01, 6-[2-[3-[4-(trifluoromethoxy)phenyl]propanoyl]-1,3,4,6-tetrahydropyrrolo[3,4-c]pyrrole-5-carbonyl]pyridine-3-sulfonamide]
Human ATX
  IC50: 5 nM
[1]
  IC50: 12 nM

## CC(C)(C)C(=O)Nc1ccc(Cl)nc1COC(=O)N1CC2=C(C1)CN(C(=O)c1ccc(S(N)(=O)=O)c(F)c1F)C2 [Example 1.22, [6-chloro-3-(2,2-dimethylpropanoylamino)pyridin-2-yl]methyl 2-(2,3-difluoro-4-sulfamoylbenzoyl)-1,3,4,6-tetrahydropyrrolo[3,4-c]pyrrole-5-carboxylate]
Human ATX; [2]
  IC50: 6 nM
[1]; [3]
  IC50: 2 nM
